Results on three molecules are retold here after PMC3337333 (Bioorganic & medicinal chemistry letters, 2012).

Assay [1] deals with Hsp90-TPR protein complexes. The settings on record: C-terminal binder; ref [21]; cited from earlier work.
Another assay relates to apoptosis. The settings on record: ref [4]; cited from earlier work.
A further assay deals with Hsp90 in HCT 116 cells. Briefly: Immunofluorescence staining of Hsp90 in treated colon cancer cells. The settings on record: 17-AAG 24 hours 200 nM, compound 3 and compound 4 72 hours 5 µM, polyclonal antibody to Hsp90. It is filed as cell-based.

As for `CO[C@@H]1[C@@H](OC(N)=O)[C@@H](O)[C@H](Oc2ccc3c(O)c(NC(=O)c4ccc(O)c(CC=C(C)C)c4)c(=O)oc3c2C)OC1(C)C` [novobiocin], the “IC50, inhibition of binding between Hsp90 and four TPR-containing co-chaperones” value in assay [1] was “millimolar range”. In the case of Sansalvamide A-amide [compound 1], in the assay on apoptosis, the induction of apoptosis result is listed as “induce apoptosis”. In the case of `C=CCNC1=C2C[C@@H](C)C[C@H](OC)[C@H](O)[C@@H](C)/C=C(\C)[C@H](OC(N)=O)[C@@H](OC)/C=C\C=C(/C)C(=O)NC(=CC1=O)C2=O` [17-AAG, 17-(allylamino)-17-demethoxygeldanamycin], the “Hsp90 staining in cytosol versus DMSO control” value in the assay with Hsp90 in HCT 116 cells was “intensify in brightness”.
